Measurements published in patent US20260232767A1, “INTERLEUKIN-23 RECEPTOR ANTAGONIST PEPTIDES FOR USE IN THE TREATMENT OF PSORIASIS” (Janssen Pharmaceutica NV, priority 2023, published 2026).

Test system: subjects with moderate-to-severe plaque psoriasis
Experiment: Suicidal ideation or behavior (Columbia-Suicide Severity Rating Scale)
[1] = Combined (all regimens), Week 16-56
[2] = Placebo → 100 mg QD, Week 16-56
[3] = Placebo → 100 mg QD, through Week 56

Experimental: Adverse events were reported and followed by the investigator. Any clinically relevant changes occurring during the study were recorded. Any clinically significant abnormalities persisting at the end of the study/early withdrawal were followed by the investigator until resolution or until a clinically stable condition was reached if possible. The evaluations of safety and tolerability include: physical examinations, vital signs, electrocardiograms, clinical safety laboratory assessments, review of concomitant medication, pregnancy testing, suicidal ideation evaluation via the Columbia—Suicide Severity Rating Scale, and tuberculosis evaluation.

CC(=O)NCCCC[C@@H]1NC(=O)[C@H](Cc2c[nH]c3c(C)cccc23)NC(=O)[C@H]([C@@H](C)O)NC(=O)[C@H](CC(N)=O)NC(=O)[C@@H](NC(C)=O)C(C)(C)SSC(C)(C)[C@@H](C(=O)N[C@@H](Cc2ccc(OCCN)cc2)C(=O)N[C@@H](Cc2ccc3ccccc3c2)C(=O)NC2(C(=O)N[C@@H](CCC(=O)O)C(=O)N[C@@H](CC(N)=O)C(=O)N[C@@H](Cc3cccnc3)C(=O)N(C)CC(N)=O)CCOCC2)NC1=O [IL-23 receptor antagonist peptide, Ac-[Pen]*-N-T-[W(7-Me)]-[Lys(Ac)]-[Pen]*-Phe[4-(2-aminoethoxy)]-[2-Nal]-[THP]-E-N-[3-Pal]-Sarc-NH2 (*[Pen]-[Pen]* formdisulfidebond)]
0: Subjects with 1 - Wish to be dead (25 mg BID, Week 16-56) | Subjects with 2 - Non-specific active suicidal thoughts (25 mg BID, Week 16-56) | Subjects with 3 - Active suicidal ideation with any methods (not plan) without intent to act (25 mg BID, Week 16-56) | Subjects with 4 - Active suicidal ideation with some intent to act, without specific plan (25 mg BID, Week 16-56) | Subjects with 5 - Active suicidal ideation with specific plan and intent (25 mg BID, Week 16-56) | Subjects with 6 - Preparatory acts or behavior (25 mg BID, Week 16-56) | Subjects with 7 - Aborted attempt (25 mg BID, Week 16-56) | Subjects with 8 - Interrupted attempt (25 mg BID, Week 16-56) | Subjects with 9 - Non-fatal suicide attempt (25 mg BID, Week 16-56) | Subjects with 10 - Completed suicide (25 mg BID, Week 16-56) | Subjects with suicidal behavior (25 mg BID, Week 16-56) | Subjects with suicidal ideation (25 mg BID, Week 16-56) | Subjects with suicidal ideation or behavior (25 mg BID, Week 16-56) | Subjects with 1 - Wish to be dead (25 mg BID, through Week 56) | Subjects with 2 - Non-specific active suicidal thoughts (25 mg BID, through Week 56) | Subjects with 3 - Active suicidal ideation with any methods (not plan) without intent to act (25 mg BID, through Week 56) | Subjects with 4 - Active suicidal ideation with some intent to act, without specific plan (25 mg BID, through Week 56) | Subjects with 5 - Active suicidal ideation with specific plan and intent (25 mg BID, through Week 56) | Subjects with 6 - Preparatory acts or behavior (25 mg BID, through Week 56) | Subjects with 7 - Aborted attempt (25 mg BID, through Week 56) | Subjects with 8 - Interrupted attempt (25 mg BID, through Week 56) | Subjects with 9 - Non-fatal suicide attempt (25 mg BID, through Week 56) | Subjects with 10 - Completed suicide (25 mg BID, through Week 56) | Subjects with suicidal behavior (25 mg BID, through Week 56) | Subjects with suicidal ideation (25 mg BID, through Week 56) | Subjects with suicidal ideation or behavior (25 mg BID, through Week 56) | Subjects with 1 - Wish to be dead (25 mg QD, through Week 56) | Subjects with 2 - Non-specific active suicidal thoughts (25 mg QD, through Week 56) | Subjects with 3 - Active suicidal ideation with any methods (not plan) without intent to act (25 mg QD, through Week 56) | Subjects with 4 - Active suicidal ideation with some intent to act, without specific plan (25 mg QD, through Week 56) | Subjects with 5 - Active suicidal ideation with specific plan and intent (25 mg QD, through Week 56) | Subjects with 6 - Preparatory acts or behavior (25 mg QD, through Week 56) | Subjects with 7 - Aborted attempt (25 mg QD, through Week 56) | Subjects with 8 - Interrupted attempt (25 mg QD, through Week 56) | Subjects with 9 - Non-fatal suicide attempt (25 mg QD, through Week 56) | Subjects with 10 - Completed suicide (25 mg QD, through Week 56) | Subjects with suicidal behavior (25 mg QD, through Week 56) | Subjects with suicidal ideation (25 mg QD, through Week 56) | Subjects with suicidal ideation or behavior (25 mg QD, through Week 56) | Subjects with 1 - Wish to be dead (25 mg QD, Week 16-56) | Subjects with 2 - Non-specific active suicidal thoughts (25 mg QD, Week 16-56) | Subjects with 3 - Active suicidal ideation with any methods (not plan) without intent to act (25 mg QD, Week 16-56) | Subjects with 4 - Active suicidal ideation with some intent to act, without specific plan (25 mg QD, Week 16-56) | Subjects with 5 - Active suicidal ideation with specific plan and intent (25 mg QD, Week 16-56) | Subjects with 6 - Preparatory acts or behavior (25 mg QD, Week 16-56) | Subjects with 7 - Aborted attempt (25 mg QD, Week 16-56) | Subjects with 8 - Interrupted attempt (25 mg QD, Week 16-56) | Subjects with 9 - Non-fatal suicide attempt (25 mg QD, Week 16-56) | Subjects with 10 - Completed suicide (25 mg QD, Week 16-56) | Subjects with suicidal behavior (25 mg QD, Week 16-56) | Subjects with suicidal ideation (25 mg QD, Week 16-56) | Subjects with suicidal ideation or behavior (25 mg QD, Week 16-56) | Subjects with 1 - Wish to be dead (50 mg QD, Week 16-56) | Subjects with 2 - Non-specific active suicidal thoughts (50 mg QD, Week 16-56) | Subjects with 3 - Active suicidal ideation with any methods (not plan) without intent to act (50 mg QD, Week 16-56) | Subjects with 4 - Active suicidal ideation with some intent to act, without specific plan (50 mg QD, Week 16-56) | Subjects with 5 - Active suicidal ideation with specific plan and intent (50 mg QD, Week 16-56) | Subjects with 6 - Preparatory acts or behavior (50 mg QD, Week 16-56) | Subjects with 7 - Aborted attempt (50 mg QD, Week 16-56) | Subjects with 8 - Interrupted attempt (50 mg QD, Week 16-56) | Subjects with 9 - Non-fatal suicide attempt (50 mg QD, Week 16-56) | Subjects with 10 - Completed suicide (50 mg QD, Week 16-56) | Subjects with suicidal behavior (50 mg QD, Week 16-56) | Subjects with suicidal ideation (50 mg QD, Week 16-56) | Subjects with suicidal ideation or behavior (50 mg QD, Week 16-56) | Subjects with 1 - Wish to be dead (50 mg QD, through Week 56) | Subjects with 2 - Non-specific active suicidal thoughts (50 mg QD, through Week 56) | Subjects with 3 - Active suicidal ideation with any methods (not plan) without intent to act (50 mg QD, through Week 56) | Subjects with 4 - Active suicidal ideation with some intent to act, without specific plan (50 mg QD, through Week 56) | Subjects with 5 - Active suicidal ideation with specific plan and intent (50 mg QD, through Week 56) | Subjects with 6 - Preparatory acts or behavior (50 mg QD, through Week 56) | Subjects with 7 - Aborted attempt (50 mg QD, through Week 56) | Subjects with 8 - Interrupted attempt (50 mg QD, through Week 56) | Subjects with 9 - Non-fatal suicide attempt (50 mg QD, through Week 56) | Subjects with 10 - Completed suicide (50 mg QD, through Week 56) | Subjects with suicidal behavior (50 mg QD, through Week 56) | Subjects with suicidal ideation (50 mg QD, through Week 56) | Subjects with suicidal ideation or behavior (50 mg QD, through Week 56) | Subjects with 1 - Wish to be dead (100 mg BID, Week 16-56) | Subjects with 2 - Non-specific active suicidal thoughts (100 mg BID, Week 16-56) | Subjects with 3 - Active suicidal ideation with any methods (not plan) without intent to act (100 mg BID, Week 16-56) | Subjects with 4 - Active suicidal ideation with some intent to act, without specific plan (100 mg BID, Week 16-56) | Subjects with 5 - Active suicidal ideation with specific plan and intent (100 mg BID, Week 16-56) | Subjects with 6 - Preparatory acts or behavior (100 mg BID, Week 16-56) | Subjects with 7 - Aborted attempt (100 mg BID, Week 16-56) | Subjects with 8 - Interrupted attempt (100 mg BID, Week 16-56) | Subjects with 9 - Non-fatal suicide attempt (100 mg BID, Week 16-56) | Subjects with 10 - Completed suicide (100 mg BID, Week 16-56) | Subjects with suicidal behavior (100 mg BID, Week 16-56) | Subjects with suicidal ideation (100 mg BID, Week 16-56) | Subjects with suicidal ideation or behavior (100 mg BID, Week 16-56) | Subjects with 1 - Wish to be dead (100 mg BID, through Week 56) | Subjects with 2 - Non-specific active suicidal thoughts (100 mg BID, through Week 56) | Subjects with 3 - Active suicidal ideation with any methods (not plan) without intent to act (100 mg BID, through Week 56) | Subjects with 4 - Active suicidal ideation with some intent to act, without specific plan (100 mg BID, through Week 56) | Subjects with 5 - Active suicidal ideation with specific plan and intent (100 mg BID, through Week 56) | Subjects with 6 - Preparatory acts or behavior (100 mg BID, through Week 56) | Subjects with 7 - Aborted attempt (100 mg BID, through Week 56) | Subjects with 8 - Interrupted attempt (100 mg BID, through Week 56) | Subjects with 9 - Non-fatal suicide attempt (100 mg BID, through Week 56) | Subjects with 10 - Completed suicide (100 mg BID, through Week 56) | Subjects with suicidal behavior (100 mg BID, through Week 56) | Subjects with suicidal ideation (100 mg BID, through Week 56) | Subjects with suicidal ideation or behavior (100 mg BID, through Week 56) | Subjects with 1 - Wish to be dead (100 mg QD, Week 16-56) | Subjects with 2 - Non-specific active suicidal thoughts (100 mg QD, Week 16-56) | Subjects with 3 - Active suicidal ideation with any methods (not plan) without intent to act (100 mg QD, Week 16-56) | Subjects with 4 - Active suicidal ideation with some intent to act, without specific plan (100 mg QD, Week 16-56) | Subjects with 5 - Active suicidal ideation with specific plan and intent (100 mg QD, Week 16-56) | Subjects with 6 - Preparatory acts or behavior (100 mg QD, Week 16-56) | Subjects with 7 - Aborted attempt (100 mg QD, Week 16-56) | Subjects with 8 - Interrupted attempt (100 mg QD, Week 16-56) | Subjects with 9 - Non-fatal suicide attempt (100 mg QD, Week 16-56) | Subjects with 10 - Completed suicide (100 mg QD, Week 16-56) | Subjects with suicidal behavior (100 mg QD, Week 16-56) | Subjects with suicidal ideation (100 mg QD, Week 16-56) | Subjects with 1 - Wish to be dead (100 mg QD, through Week 56) | Subjects with 2 - Non-specific active suicidal thoughts (100 mg QD, through Week 56) | Subjects with 3 - Active suicidal ideation with any methods (not plan) without intent to act (100 mg QD, through Week 56) | Subjects with 4 - Active suicidal ideation with some intent to act, without specific plan (100 mg QD, through Week 56) | Subjects with 5 - Active suicidal ideation with specific plan and intent (100 mg QD, through Week 56) | Subjects with 6 - Preparatory acts or behavior (100 mg QD, through Week 56) | Subjects with 7 - Aborted attempt (100 mg QD, through Week 56) | Subjects with 8 - Interrupted attempt (100 mg QD, through Week 56) | Subjects with 10 - Completed suicide (100 mg QD, through Week 56) | Subjects with suicidal ideation (100 mg QD, through Week 56) | Subjects with 1 - Wish to be dead [1] | Subjects with 2 - Non-specific active suicidal thoughts [1] | Subjects with 3 - Active suicidal ideation with any methods (not plan) without intent to act [1] | Subjects with 4 - Active suicidal ideation with some intent to act, without specific plan [1] | Subjects with 5 - Active suicidal ideation with specific plan and intent [1] | Subjects with 6 - Preparatory acts or behavior [1] | Subjects with 7 - Aborted attempt [1] | Subjects with 8 - Interrupted attempt [1] | Subjects with 9 - Non-fatal suicide attempt [1] | Subjects with 10 - Completed suicide [1] | Subjects with suicidal behavior [1] | Subjects with suicidal ideation [1] | Subjects with 1 - Wish to be dead (Combined, through Week 56) | Subjects with 2 - Non-specific active suicidal thoughts (Combined, through Week 56) | Subjects with 3 - Active suicidal ideation with any methods (not plan) without intent to act (Combined, through Week 56) | Subjects with 4 - Active suicidal ideation with some intent to act, without specific plan (Combined, through Week 56) | Subjects with 5 - Active suicidal ideation with specific plan and intent (Combined, through Week 56) | Subjects with 6 - Preparatory acts or behavior (Combined, through Week 56) | Subjects with 7 - Aborted attempt (Combined, through Week 56) | Subjects with 8 - Interrupted attempt (Combined, through Week 56) | Subjects with 10 - Completed suicide (Combined, through Week 56) | Subjects with suicidal ideation (Combined, through Week 56) | Subjects with 1 - Wish to be dead [2] | Subjects with 2 - Non-specific active suicidal thoughts [2] | Subjects with 3 - Active suicidal ideation with any methods (not plan) without intent to act [2] | Subjects with 4 - Active suicidal ideation with some intent to act, without specific plan [2] | Subjects with 5 - Active suicidal ideation with specific plan and intent [2] | Subjects with 6 - Preparatory acts or behavior [2] | Subjects with 7 - Aborted attempt [2] | Subjects with 8 - Interrupted attempt [2] | Subjects with 9 - Non-fatal suicide attempt [2] | Subjects with 10 - Completed suicide [2] | Subjects with suicidal behavior [2] | Subjects with suicidal ideation [2] | Subjects with suicidal ideation or behavior [2] | Subjects with 1 - Wish to be dead [3] | Subjects with 2 - Non-specific active suicidal thoughts [3] | Subjects with 3 - Active suicidal ideation with any methods (not plan) without intent to act [3] | Subjects with 4 - Active suicidal ideation with some intent to act, without specific plan [3] | Subjects with 5 - Active suicidal ideation with specific plan and intent [3] | Subjects with 6 - Preparatory acts or behavior [3] | Subjects with 7 - Aborted attempt [3] | Subjects with 8 - Interrupted attempt [3] | Subjects with 9 - Non-fatal suicide attempt [3] | Subjects with 10 - Completed suicide [3] | Subjects with suicidal behavior [3] | Subjects with suicidal ideation [3] | Subjects with suicidal ideation or behavior [3]
